The values below come from patent US4183939A, “Glaucine analgesic method” (priority 1978, dated 1980).

The format of data set [1] is in vivo. The settings on record: intraperitoneal injection 45-60 minutes before testing.
In data set [2] the test system is mice. Put plainly: protecting mice against writhing induced by intraperitoneal injection of aqueous 0.1 percent hydrochloric acid. As to conditions: subcutaneous, 15 minutes before HCl; for ED50: Mus musculus, sc. Format: in vivo. On the procedure:
l-Glaucine hydrobromide and d-glaucine hydrobromide were evaluated for analgesic activity in protecting mice against characteristic writhing induced by intraperitoneal injection of aqueous 0.1 percent hydrochloric acid, injected 15 minutes after subcutaneous injection of a test compound.
A general note: Writhing tests count abdominal constrictions after an irritant is injected.

Data set [3] has as its system mice. Put plainly: animal or person. Format: in vivo. The settings on record: Mus musculus, sc, 0.5 h; first evaluation; subcutaneous injection 30 minutes before testing; read-out: ED50 (hot plate). As for the experimental part:
The test compounds were administered by subcutaneous injection 30 minutes before testing.

Data set [4] relates to mice. Put plainly: phenyl-p-quinone mouse writhing test (oral analgesic activity). As to conditions: orally 30 minutes prior to phenyl-p-quinone challenge; for ED50: Mus musculus, po, 0.5 h. Format: in vivo. As for the experimental part:
Test compounds were evaluated for oral analgesic activity in the phenyl-p-quinone mouse writhing test of Hendershot & Forsaith, J. Pharmacol. Exptl. Therap. 125(3), 237 (1959). Test compounds were administered orally 30 minutes prior to the phenyl-p-quinone challenge. […]

Data set [5] is described as follows: plasma concentration levels of glaucine in guinea pigs. The settings on record: for concentration at 0.25 h: 15 minutes after dosing, l-isomer orally 5 mg/kg, read-out: plasma glaucine level after 15 minutes. Format: in vivo. On the procedure:
Test compounds were administered to guinea pigs, and blood samples were collected at 15 minute intervals and analyzed to determine plasma concentration levels of glaucine.
Similar results were obtained with d- and l-glaucine phosphate, with l-glaucine phosphate producing from 3 to 6 or more times the levels obtained with the d-isomer throughout a 120 minute period.

The test system of data set [6] is mice. As to conditions: cited from earlier work.
For data set [7] the following is noted: in vivo; cited from earlier work.
The conditions of data set [8]: in vivo; cited from earlier work. This is another data set of the same source.
The subject of data set [9] is mice. Format: in vivo. The settings on record: for stimulation and Straub tail: increasing doses on two consecutive days, d,l-glaucine phosphate highest dose 100 mg/kg; for jumping behavior after naloxone (in words): naloxone 100 mg/kg intraperitoneal. On the procedure:
Physical dependency liability was evaluated in mice by the procedure of Saelens, et al., Aoch. Int. Pharmacodynam, 190:213-218, 1971. In this procedure, mice are administered increasing doses of a test compound at intervals on two consectuive days. The last dosage on the second day is followed by intraperitoneal injection of the morphine antagonist, naloxone, at a dosage of 100 mg/kg, and the mice are observed for characteristic jumping behavior indicative of opiate withdrawals or morphine antaganism.

Data set [10] relates to monkeys. Put plainly: abuse potential: self-administration in codeine-habituated monkeys. The format is in vivo. The settings on record: codeine 100 micrograms/kg per injection; d,l-glaucine phosphate substituted at 50, 100, 200 and 400 micrograms/kg per injection. From the text:
The abuse potential of d,l-glaucine phosphate was studied in two monkeys in a procedure similar to that described by Deneau, et al., Psychopharmacologia 16(1):30-48, 1969.
In this procedure, the test monkeys are restrained and catheter inserted into the external jugular vein for injection of test substances in response to pressing a bar lever by the monkey. The test monkeys are first habituated to self-administer codeine at a rate of 100 micrograms/kilograms per injection. The self-administration rate of the two monkeys so trained and habituated was about 100 to 150 lever pushes per two hour session at the 100 microgram codeine level. […]

The nature of data set [11]: acute lethality (LD50) in mice. The format is in vivo. The settings on record: mouse, in vivo, mortality within 72 hours.
Experimental: (§1) In other operations, various dosages of d,l-glaucine phosphate were administered to groups of mice by the oral route or by intraperitoneal injection, and the dosage which is lethal to 50 percent of the mice (LD50) was calculated from the mortality observations within 72 hours after administration.
In data set [12] the test system is mice. Put plainly: acute lethality (LD50) in mice. The format is in vivo. The settings on record: mortality within 72 hours.
Experimental: as §1
For data set [13] the following is noted: in vivo; cited from earlier work. The source holds these as a separate data set.
Where [14] appears, read: naloxone 100 mg/kg intraperitoneal after last dose on second day.

The structures appear in SMILES notation. Structures can show the parent of a compound that is named as a salt. Where two headings read alike, the source gives them in different places.

Turning to `CCC(=O)O[C@](Cc1ccccc1)(c1ccccc1)[C@H](C)CN(C)C` [d-Propoxyphene·HCl], the “ED50 (tail pinch)” value in [1] is listed as 16.7 mg/kg.

As to `COc1cc2c(cc1OC)-c1c(OC)c(OC)cc3c1[C@@H](C2)N(C)CC3` [l-glaucine hydrobromide], the results for the 50% effective dose (ED50) in data set [2], in data set [3] and in data set [4] were 5.99 mg/kg, 12.7 mg/kg and 17 mg/kg, respectively. In addition, in data set [2], the “95 percent confidence limits of ED50 (HCl writhing)” value is 2.43 to 14.8 mg/kg. The “analgesic activity (tail pinch)” value in [1] was “No analgesic activity was observed”. Further, in [5] (guinea pig, plasma, po), the concentration at 0.25 h is about 40 ng/mL. Also, in data set [5] (guinea pig, plasma, po, orally 5 mg/kg, end of 90 minutes test period, read-out: plasma glaucine level at end of test period), the concentration at 1.5 h is about 200 ng/mL. Moreover, the Cmax in data set [5] (guinea pig, plasma, po, orally 5 mg/kg, one hour after administration, read-out: peak plasma glaucine level) is over 350 ng/mL. The “time of peak plasma level” value in data set [5] (orally 5 mg/kg) is on record as “one”.

`COc1cc2c(cc1OC)-c1c(OC)c(OC)cc3c1[C@H](C2)N(C)CC3` [d-glaucine]: the “hexenal and chloral hydrate sleep time” value in data set [6] was “prolongs hexenal and chloral hydrate sleep time”. Besides, the “doses with analgesic activity” value in data set [7] was 50 to 100 mg/kg. Further, the adrenolytic activity entry in [8] was “adrenolytic activity”.

Turning to `COc1ccc2c3c1O[C@H]1[C@@H](O)C=C[C@H]4[C@@H](C2)N(C)CC[C@@]341` [codeine phosphate], the “ED50 (tail pinch)” value in data set [1] amounted to 6.8 mg/kg. This molecule also yielded a 50% effective dose (ED50) in data set [4] of 21.1 mg/kg. In addition, in data set [9], the “stimulation and Straub tail” value was “produced Straub tail and stimulation”. In addition, in data set [9] (setting [14]), the “mice jumping after naloxone” value was 2 of 6 and the “total jumps after naloxone” value is given as 23 jumps total.

In turn, `COc1cc2c(cc1OC)-c1c(OC)c(OC)cc3c1C(C2)N(C)CC3` (racemic) [d,l-glaucine phosphate] registered an ED50 in data set [4] of 23 mg/kg. Besides, the self-administration response rate in [10] is given as 10-20 responses/two hour session. The “stimulation and Straub tail” value in [9] was “no Straub tail at the highest dose”. The “jumping behavior after naloxone (in words)” value in data set [9] (listed as d,l-Glaucine phosphate 1:11/2 salt) is given as “no jumping behavior in any of the eight mice tested”. The median lethal dose (LD50) at 72 h in data set [11] (ip, intraperitoneal, read-out: LD50, intraperitoneal) was 178 mg/kg; in data set [11] (po, read-out: LD50, oral), at least 681 mg/kg.

As for `COc1ccc2c3c1O[C@H]1[C@@H](O)C=C[C@H]4[C@@H](C2)N(C)CC[C@@]341` [codeine], the self-administration response rate in data set [10] was 100-150 responses/two hour session.

As for `COc1cc2c(cc1OC)-c1c(OC)c(OC)cc3c1C(C2)N(C)CC3` (racemic) [d,l-glaucine lactate], the “oral ED50 (phenyl-p-quinone writhing)” value in [4] (30 min) turned out to be 25.5 mg/kg. The “jumping behavior after naloxone (in words)” value in data set [9] is on record as “no jumping in any of the ten mice tested”. In addition, in [12] (intraperitoneal), the “LD50, intraperitoneal” value is on record as 178 mg/kg. Also, in [12] (oral, 4320 min), the “LD50, oral” value is recorded as 383 mg/kg.

Regarding `COc1cc2c(cc1OC)-c1c(OC)c(OC)cc3c1[C@H](C2)N(C)CC3` [d-glaucine hydrobromide], the ED50 was 12.9 mg/kg in data set [2], 23.8 mg/kg in data set [3] and 34 mg/kg in data set [4]. The “95 percent confidence limits of ED50 (HCl writhing)” value in data set [2] lay in the range of 5.24 to 31.8 mg/kg. For the same molecule, in [1], the “analgesic activity (tail pinch)” value is listed as “No analgesic activity was observed”. Further, in data set [5] (after initial peak at 15 minutes, to 90 minutes), the “plasma level after initial peak, throughout the 90 minute period” value is 20-40 nanograms/ml. In addition, the concentration at 0.25 h in data set [5] (guinea pig, plasma, po) is about 50 ng/mL. In addition, in data set [5] (guinea pig, plasma, read-out: time of initial peak plasma level (converted)), the Tmax was 15 min. In addition, the antitussive activity entry in data set [13] is reported as “antitussive activity”.

A word on the ED50: it is the dose that gives a 50% effect, or the effect in half of the subjects. In general, LD50 refers to the dose expected to kill half of the subjects tested.
